The term GI50 denotes the concentration that inhibits growth by half. Low values mean more potent growth inhibition, high ones less potent growth inhibition.

Common to all, as to format: functional
The nature of experiment [1]: Cytotoxicity against human NCI60 cells after 48 hrs by sulforhodamine B assay. Conditions: NCI60, 48 h; for TGI: read-out: pTGI (converted). In general terms: Sulforhodamine B stains cellular protein and so reports cell mass.
The nature of experiment [2]: Cytotoxicity against human NCI60 cells assessed as cell growth at 10 uM after 48 hrs by sulforhodamine B assay. Conditions: NCI60, 48 h, read-out: Activity.
Another experiment relates to A498. As to the kind of experiment: Cytotoxicity against human A498 cells after 48 hrs by sulforhodamine B assay. The note with it: A498, 48 h; for CC50: read-out: pLC50 (the source's name) (converted); for TGI: read-out: pTGI (converted).
In a further experiment the test system is HOP-92. As to the kind of experiment: Cytotoxicity against human HOP92 cells after 48 hrs by sulforhodamine B assay. Conditions: HOP-92, 48 h; for TGI: read-out: pTGI (converted).
The next experiment relates to OVCAR-3. The experiment can be described thus: Cytotoxicity against human OVCAR-3 cells after 48 hrs by sulforhodamine B assay. Conditions: OVCAR-3, 48 h; for CC50: read-out: pLC50 (the source's name) (converted); for TGI: read-out: pTGI (converted).
A further experiment concerns CCRF-CEM. As to the kind of experiment: Cytotoxicity against human CCRF-CEM cells after 48 hrs by sulforhodamine B assay.
Another experiment concerns HCT-116. As to the kind of experiment: Cytotoxicity against human HCT116 cells after 48 hrs by sulforhodamine B assay. The note with it: HCT-116, 48 h.
The next experiment deals with 786-0. As to the kind of experiment: Cytotoxicity against human 786-0 cells after 48 hrs by sulforhodamine B assay. The note with it: 786-0, 48 h.
Another experiment concerns HOP-62. As to the kind of experiment: Cytotoxicity against human HOP62 cells after 48 hrs by sulforhodamine B assay. The note with it: HOP-62, 48 h.
A further experiment deals with SR. The experiment can be described thus: Cytotoxicity against human SR cells after 48 hrs by sulforhodamine B assay.
A further experiment concerns RXF 393. The experiment can be described thus: Cytotoxicity against human RXF393 cells after 48 hrs by sulforhodamine B assay. The note with it: RXF 393, 48 h.
The next experiment has as its system CAKI-1. The experiment can be described thus: Cytotoxicity against human Caki1 cells after 48 hrs by sulforhodamine B assay. The note with it: CAKI-1, 48 h.
In the next experiment the test system is T47D. As to the kind of experiment: Cytotoxicity against human T47D cells after 48 hrs by sulforhodamine B assay.
The mark [3] stands for this setting: read-out: pLC50 (the source's name) (converted).

Consider `O=C(O)CCCc1ccc(N(CCCl)CCCl)cc1` [CHLORAMBUCIL], for which, in [1], the TGI is 35.5 µM.
Regarding `O=C(N/N=C/c1ccc(Cl)cc1Cl)c1ccc(C(F)(F)F)nc1Nc1cccc(C(F)(F)F)c1`, the growth at 10 µM in [2] came out at 66.3%.
The same measure, in the same setting: as for `COc1cc(/C=N/NC(=O)c2ccc(C(F)(F)F)nc2Nc2cc(Cl)ccc2OC)ccc1O`, the figure is 42.1%.
On to `O=C(N/N=C/c1ccncc1)c1ccc(C(F)(F)F)nc1Nc1cccc(C(F)(F)F)c1`, for which, in [1], the TGI was 8.71 µM. Besides, in [2], the growth at 10 µM is 10.8%.
The corresponding values for `O=C(N/N=C/c1ccc(F)cc1)c1ccc(C(F)(F)F)nc1Nc1cccc(C(F)(F)F)c1` are 4.47 µM and 7.73%.
For `O=C(N/N=C/c1c(Cl)cccc1Cl)c1ccccc1Nc1cccc(C(F)(F)F)c1`, in [2], the growth at 10 µM is 90.6%.
Still for that read-out and setting: as for `Cc1ccc(Cl)cc1Nc1nc(C(F)(F)F)ccc1C(=O)N/N=C/c1ccc(Cl)cc1Cl`, the figure is 62.6%; as for `O=C(N/N=C/c1ccc([N+](=O)[O-])cc1)c1ccc(C(F)(F)F)nc1Nc1cccc(C(F)(F)F)c1`, 95.2%.
Take `O=C(N/N=C/c1c(Cl)cccc1Cl)c1ccc(C(F)(F)F)nc1Nc1cccc(C(F)(F)F)c1`: the GI50 in the experiment with A498 is 0.191 µM; with HOP-92 it was 0.0447 µM; with OVCAR-3 it was 0.191 µM. Moreover, the results for the CC50 in the experiment with A498 and in the experiment with OVCAR-3 were 9.33 µM and 77.6 µM, respectively. The TGI is 0.646 µM with A498, 10.2 µM in experiment [1], 0.417 µM with HOP-92 and 0.646 µM in the experiment on OVCAR-3. Besides, in experiment [2], the growth at 10 µM came to 5.01%.
Regarding `Cc1ccc(Cl)cc1Nc1nc(C(F)(F)F)ccc1C(=O)N/N=C/c1ccc(Cl)cc1`, in experiment [1], the GI50 was 1.48 µM and the TGI is 5.25 µM. The growth at 10 µM in experiment [2] stood at 0.47%.
Turning to `O=C(N/N=C/c1ccccc1Cl)c1ccc(C(F)(F)F)nc1Nc1cccc(C(F)(F)F)c1`, in experiment [2], the growth at 10 µM was 34.2%.
Still for that read-out and setting: the same measure for `Cc1ccc(Cl)cc1Nc1nc(C(F)(F)F)ccc1C(=O)N/N=C/c1ccc([N+](=O)[O-])cc1`: 85.7%.
The molecule `Cc1cc(Cl)ccc1Nc1nc(C(F)(F)F)ccc1C(=O)N/N=C/c1ccc([N+](=O)[O-])cc1` showed a GI50 in the experiment on CCRF-CEM of 0.0427 µM. Moreover, the TGI in the experiment on CCRF-CEM (read-out: pTGI (converted)) was 0.0776 µM; in experiment [1] it was 4.68 µM. Besides, the growth at 10 µM in experiment [2] is -7.22%.
In the case of `COc1ccc(Cl)cc1Nc1nc(C(F)(F)F)ccc1C(=O)N/N=C/c1ccc([N+](=O)[O-])cc1`, the TGI in [1] is 8.71 µM. In addition, the growth at 10 µM in experiment [2] was found to be 0.92%.
Regarding `O=C(N/N=C/c1cccnc1)c1ccc(C(F)(F)F)nc1Nc1cccc(C(F)(F)F)c1`, the growth at 10 µM in experiment [2] was 70.3%.
On the same count and under the same terms, the same measure for `CN(C)c1ccc(/C=N/NC(=O)c2ccc(C(F)(F)F)nc2Nc2cccc(C(F)(F)F)c2)cc1`: 60.2%; for `Cc1ccc(Cl)cc1Nc1nc(C(F)(F)F)ccc1C(=O)N/N=C/c1ccncc1`: 67.9%.
Same read-out and setting: the same measure for `COc1ccc(Cl)cc1Nc1nc(C(F)(F)F)ccc1C(=O)N/N=C/c1cccc(O)c1`: 59.1%; for `COc1ccc(Cl)cc1Nc1nc(C(F)(F)F)ccc1C(=O)N/N=C/c1ccc(Cl)cc1Cl`: 72.1%.
Consider `Cc1ccc(Cl)cc1Nc1nc(C(F)(F)F)ccc1C(=O)N/N=C/c1c(Cl)cccc1Cl`, for which the concentration for 50% growth inhibition (GI50) in the experiment on HCT-116 is 0.214 µM; in the experiment with 786-0, 0.251 µM; with HOP-62, 0.251 µM; in the experiment with SR, 0.0562 µM. In addition, the CC50 with HCT-116 (setting [3]) was 3.31 µM; in the experiment on 786-0 (setting [3]), 3.02 µM; in the experiment with HOP-62 (setting [3]), 5.75 µM; in the experiment with SR (setting [3]), 41.7 µM. Further, the TGI in the experiment with HCT-116 (read-out: pTGI (converted)) was 0.49 µM; in the experiment with 786-0 (read-out: pTGI (converted)) it was 0.603 µM; in experiment [1] it was 6.17 µM; in the experiment with HOP-62 (read-out: pTGI (converted)), 0.776 µM; in the experiment on SR (read-out: pTGI (converted)), 2.69 µM. The growth at 10 µM in [2] was -3.82%.
Consider `Cc1cc(Cl)ccc1Nc1nc(C(F)(F)F)ccc1C(=O)N/N=C/c1cccnc1`, for which the growth at 10 µM in experiment [2] is 47.2%.
The same measure, in the same setting: the same measure for `COc1ccc(Cl)cc1Nc1nc(C(F)(F)F)ccc1C(=O)N/N=C/c1ccc(N(C)C)cc1`: 95.6%.
Regarding `Cc1cc(Cl)ccc1Nc1nc(C(F)(F)F)ccc1C(=O)N/N=C/c1cccc(O)c1`, the TGI in experiment [1] is 11 µM; in the experiment on RXF 393 (read-out: pTGI (converted)) it was 11.2 µM; in the experiment with CAKI-1 (read-out: pTGI (converted)), 3.31 µM; with T47D (read-out: pTGI (converted)), 2.14 µM. For the same molecule, the growth at 10 µM in [2] was 27.1%. Further, the GI50 in the experiment with RXF 393 is 0.195 µM; in the experiment with CAKI-1 it was 0.017 µM; with T47D, 0.0355 µM. The results for the CC50 with CAKI-1 (setting [3]) and with T47D (setting [3]) were 24 µM and 21.4 µM, respectively.
Turning to `O=C(N/N=C/c1cccc(O)c1)c1ccc(C(F)(F)F)nc1Nc1cccc(C(F)(F)F)c1`, the growth at 10 µM in [2] was 103%.
With `COc1ccc(Cl)cc1Nc1nc(C(F)(F)F)ccc1C(=O)N/N=C/c1cccnc1`, in experiment [1], growth was halved (GI50) at 2.95 µM and the TGI was 79.4 µM. Moreover, the growth at 10 µM in experiment [2] stood at 44.7%.
As for `COc1cc(/C=N/NC(=O)c2ccc(C(F)(F)F)nc2Nc2cc(Cl)ccc2C)ccc1O`, in experiment [2], the growth at 10 µM stood at 47.2%.
Same read-out and setting: the same measure for `Cc1cc(Cl)ccc1Nc1nc(C(F)(F)F)ccc1C(=O)N/N=C/c1ccncc1`: 54.2%; for `COc1cc(/C=N/NC(=O)c2ccc(C(F)(F)F)nc2Nc2cccc(C(F)(F)F)c2)ccc1O`: 50.1%; for `Cc1ccc(Cl)cc1Nc1nc(C(F)(F)F)ccc1C(=O)N/N=C/c1ccc(N(C)C)cc1`: 52.1%.
On the same count and under the same terms, the same measure for `Cc1ccc(Cl)cc1Nc1nc(C(F)(F)F)ccc1C(=O)N/N=C/c1ccccc1Cl`: 36.2%.
Consider `Cc1cc(Cl)ccc1Nc1nc(C(F)(F)F)ccc1C(=O)N/N=C/c1ccccc1Cl`, for which, in the experiment with A498, the GI50 was less than 0.01 µM, the CC50 is 17.8 µM and the TGI was 2.69 µM. Moreover, the TGI in experiment [1] was 5.13 µM. In addition, the growth at 10 µM in experiment [2] was determined as 14.8%. In addition, in the experiment on OVCAR-3, the GI50 was 0.191 µM, the CC50 is 8.32 µM and the TGI is 0.513 µM.
Consider `Cc1cc(Cl)ccc1Nc1nc(C(F)(F)F)ccc1C(=O)N/N=C/c1ccc(Cl)cc1Cl`, for which, in experiment [2], the growth at 10 µM turned out to be 60.1%.
On the same count and under the same terms, as for `COc1cc(/C=N/NC(=O)c2ccc(C(F)(F)F)nc2Nc2cc(Cl)ccc2C)cc(OC)c1OC`, the figure is 94%.
Same read-out and setting: the same measure for `COc1cc(/C=N/NC(=O)c2ccc(C(F)(F)F)nc2Nc2cccc(C(F)(F)F)c2)cc(OC)c1OC`: 44.5%; for `COc1ccc(Cl)cc1Nc1nc(C(F)(F)F)ccc1C(=O)N/N=C/c1ccc(F)cc1`: 36.5%.
For `O=C(N/N=C/c1c(Cl)cccc1Cl)c1cccnc1Nc1cccc(C(F)(F)F)c1`, the TGI in experiment [1] was 39.8 µM. Further, the growth at 10 µM in experiment [2] amounted to 37.8%.
As for `Cc1ccc(Cl)cc1Nc1nc(C(F)(F)F)ccc1C(=O)N/N=C/c1cccnc1`, in experiment [1], the TGI is 12.6 µM. Also, in [2], the growth at 10 µM is 20.9%. The molecule further gave a GI50 with SR of 0.0977 µM.
Turning to `Cc1ccc(Cl)cc1Nc1nc(C(F)(F)F)ccc1C(=O)N/N=C/c1cccc(O)c1`, in experiment [2], the growth at 10 µM came to 90.1%.
Turning to `O=C(N/N=C/c1ccc(Cl)cc1)c1ccc(C(F)(F)F)nc1Nc1cccc(C(F)(F)F)c1`, the values for the TGI (in [1]; with HOP-92) were 6.61 µM and 0.589 µM, respectively. Further, the growth at 10 µM in [2] worked out at 9.64%. For the same molecule, the 50% growth inhibitory concentration (GI50) in the experiment on HOP-92 was 0.0437 µM. For the same molecule, the CC50 with HOP-92 (setting [3]) is 20.9 µM.
As for `Cc1ccc(Cl)cc1Nc1nc(C(F)(F)F)ccc1C(=O)N/N=C/c1ccc(F)cc1`, in [2], the growth at 10 µM came to 33%.
For the molecule `Cc1cc(Cl)ccc1Nc1nc(C(F)(F)F)ccc1C(=O)N/N=C/c1ccc(N(C)C)cc1`, in experiment [1], the GI50 is 1.7 µM and the TGI was 66.1 µM. Moreover, the growth at 10 µM in experiment [2] was found to be 23.2%.
`Cc1cc(Cl)ccc1Nc1nc(C(F)(F)F)ccc1C(=O)N/N=C/c1ccc(F)cc1`: the TGI in experiment [1] is 7.08 µM. In [2], the growth at 10 µM was 6.66%.
For the molecule `COc1cc(/C=N/NC(=O)c2ccc(C(F)(F)F)nc2Nc2ccc(Cl)cc2C)cc(OC)c1OC`, the growth at 10 µM in [2] came out at 32.3%.
With `Cc1cc(Cl)ccc1Nc1nc(C(F)(F)F)ccc1C(=O)N/N=C/c1ccc(Cl)cc1`, in [1], the TGI is 7.59 µM. In experiment [2], the growth at 10 µM was -7.31%.
Take `COc1ccc(Cl)cc1Nc1nc(C(F)(F)F)ccc1C(=O)N/N=C/c1cc(OC)c(OC)c(OC)c1`: the TGI in experiment [1] was 10.5 µM. For the same molecule, the growth at 10 µM in experiment [2] was found to be 17.6%.
For `COc1cc(/C=N/NC(=O)c2ccc(C(F)(F)F)nc2Nc2ccc(Cl)cc2C)ccc1O` the same measures were 10.5 µM and 26.8%.
Turning to `Cc1cc(Cl)ccc1Nc1nc(C(F)(F)F)ccc1C(=O)NCC(=O)N/N=C/c1c(Cl)cccc1Cl`, the growth at 10 µM in experiment [2] came out at 68.1%.
Take `Nc1nc(C(F)(F)F)ccc1C(=O)N/N=C/c1c(Cl)cccc1Cl`: in experiment [2], the growth at 10 µM is 102%.
On the same count and under the same terms, the same measure for `COc1ccc(Cl)cc1Nc1nc(C(F)(F)F)ccc1C(=O)N/N=C/c1ccncc1`: 62.5%.

The values are drawn from ChEMBL document CHEMBL1152547, “Synthesis and evaluation of anticancer activity of 2-arylamino-6-trifluoromethyl-3-(hydrazonocarbonyl)pyridines” (Bioorg Med Chem, 2009).
